# Tests used:
# Assay type in all cases: in vivo
# [1] = tested on: Amaranthus retroflexus L. (pigweed); assay: Greenhouse pre-emergence treatment of Amaranthus retroflexus; conditions: application rate 1000 g/ha, scale 0 to 100
# From the text: The seeds of the test plants were sown separately for each species. For the pre-emergence treatment, the active ingredients, which had been suspended or emulsified in water, were applied directly after sowing by means of finely distributing nozzles. The containers were irrigated gently to promote germination and growth and subsequently covered with transparent plastic hoods until the plants had rooted. This cover caused uniform germination of the test plants, unless this has been impaired by the active ingredients. Depending on the species, the plants were kept at 10-25° C. or 20-35° C. The test period extended over 2 to 4 weeks. During this time, the plants were tended, and their response to the individual treatments was evaluated. Evaluation was carried out using a scale from 0 to 100. 100 means no emergence of the plants, or complete destruction of at least the aerial moieties, and 0 means no damage, or normal course of growth. A good herbicidal activity is given at values of at least 70 and a very good herbicidal activity is given at values of at least 85. The plants used in the greenhouse experiments belonged to the following species: [table]
# [2] = tested on: Echinochloa crus-galli (barnyard grass); assay: Greenhouse post-emergence treatment of Echinochloa crus-galli; conditions: application rate 1000 g/ha, scale 0 to 100
# From the text: (§1) The seeds of the test plants were sown separately for each species. For the post-emergence treatment, the test plants were first grown to a height of 3 to 15 cm, depending on the plant habit, and only then treated with the active ingredients which had been suspended or emulsified in water. For this purpose, the test plants were either sown directly and grown in the same containers, or they were first grown separately as seedlings and transplanted into the test containers a few days prior to treatment. Depending on the species, the plants were kept at 10-25° C. or 20-35° C. The test period extended over 2 to 4 weeks. During this time, the plants were tended, and their response to the individual treatments was evaluated. Evaluation was carried out using a scale from 0 to 100. 100 means no emergence of the plants, or complete destruction of at least the aerial moieties, and 0 means no damage, or normal course of growth. A good herbicidal activity is given at values of at least 70 and a very good herbicidal activity is given at values of at least 85. The plants used in the greenhouse experiments belonged to the following species: [table]
# [3] = tested on: Abutilon theophrasti (velvetleaf); assay: Greenhouse post-emergence treatment of Abutilon theophrasti; conditions: application rate 1000 g/ha, scale 0 (no damage) to 100 (complete destruction)
# From the text: as §1
structure (smiles),measurement,setting,value
CON=C1CCS(=O)(=O)c2ccc(C(=O)Nc3ncnn3C)c(C)c21 [I.A-47],damage [%],[1],70%
same,damage [%],[2],95%
same,damage [%],[3],100%
CON=C1CCS(=O)(=O)c2ccc(C(=O)Nc3nnnn3C)c(C)c21 [V.A-47],damage [%],[1],100%
same,damage [%],[2],100%
same,damage [%],[3],100%

# — US20150291570A1, “Substituted N-(tetrazol-5-yl)- and N-(triazol-5-yl)arylcarboxamide compounds and their use as herbicides” (BASF SE, priority 2012, published 2015)
